Measurements reported in ChEMBL document CHEMBL1240386, “Pharmacokinetics of antituberculosis drugs in pulmonary tuberculosis patients with type 2 diabetes” (Antimicrob Agents Chemother, 2010).

What was measured:
Format in all cases: ADME, organism-based
[1] = AUC (0 to 24 hrs) in diabetic tuberculosis patient at 10 mg/kg, po and 10 mg/kg, iv by HPLC analysis; details: human, plasma
[2] = AUC (0 to 24 hrs) in tuberculosis patient at 10 mg/kg, po by HPLC analysis; set-up: time < 24 hr, dose 10 mg/kg, route oral; details: human, plasma
Homo sapiens [3] = organism: Homo sapiens; test: Ratio of AUC (0 to 24 hrs) for diabetic tuberculosis patient to AUC (0 to 24 hrs) for tuberculosis patient; details: in vivo
[4] = Cmax in diabetic tuberculosis patient at 10 mg/kg, po and 10 mg/kg, iv by HPLC analysis; details: human, in vivo
[5] = Cmax in tuberculosis patient at 10 mg/kg, po by HPLC analysis; set-up: dose 10 mg/kg, route oral; details: human, in vivo
Homo sapiens [6] = organism: Homo sapiens; test: Ratio of Cmax in diabetic tuberculosis patient to Cmax in tuberculosis patient; details: in vivo
[7] = Tmax in diabetic tuberculosis patient at 10 mg/kg, po and 10 mg/kg, iv by HPLC analysis; details: human, in vivo
[8] = Tmax in tuberculosis patient at 10 mg/kg, po by HPLC analysis; set-up: dose 10 mg/kg, route oral; details: human, in vivo
[9] = Half life in diabetic tuberculosis patient at 10 mg/kg, po and 10 mg/kg, iv by HPLC analysis; details: human, in vivo
[10] = Half life in tuberculosis patient at 10 mg/kg, po by HPLC analysis; set-up: dose 10 mg/kg, route oral; details: human, in vivo
Homo sapiens [11] = organism: Homo sapiens; test: Ratio of half life in diabetic tuberculosis patient to half life in tuberculosis patient; details: in vivo
[12] = AUC (0 to 24 hrs) in diabetic tuberculosis patient at 15 mg/kg, po by HPLC analysis; set-up: time < 24 hr, dose 15 mg/kg, route oral; details: human, plasma
[13] = AUC (0 to 24 hrs) in tuberculosis patient at 15 mg/kg, po by HPLC analysis; set-up: time < 24 hr, dose 15 mg/kg, route oral; details: human, plasma
Homo sapiens [14] = test: Ratio of sAUC (0 to 24 hrs) for diabetic tuberculosis patient to sAUC (0 to 24 hrs) for tuberculosis patient at 15 mg/kg, po; set-up: dose 15 mg/kg, route oral; details: in vivo
[15] = Cmax in diabetic tuberculosis patient at 15 mg/kg, po by HPLC analysis; set-up: dose 15 mg/kg, route oral; details: human, in vivo
[16] = Cmax in tuberculosis patient at 15 mg/kg, po by HPLC analysis; set-up: dose 15 mg/kg, route oral; details: human, in vivo
Homo sapiens [17] = test: Ratio of Cmax in diabetic tuberculosis patient to Cmax in tuberculosis patient at 15 mg/kg, po; set-up: dose 15 mg/kg, route oral; details: in vivo
[18] = Tmax in diabetic tuberculosis patient at 15 mg/kg, po by HPLC analysis; set-up: dose 15 mg/kg, route oral; details: human, in vivo
[19] = Tmax in tuberculosis patient at 15 mg/kg, po by HPLC analysis; set-up: dose 15 mg/kg, route oral; details: human, in vivo
[20] = AUC (0 to 24 hrs) in diabetic tuberculosis patient at 30 mg/kg, po by HPLC analysis; set-up: time < 24 hr, dose 30 mg/kg, route oral; details: human, plasma
[21] = AUC (0 to 24 hrs) in tuberculosis patient at 30 mg/kg, po by HPLC analysis; set-up: time < 24 hr, dose 30 mg/kg, route oral; details: human, plasma
Homo sapiens [22] = test: Ratio of AUC (0 to 24 hrs) for diabetic tuberculosis patient to AUC (0 to 24 hrs) for tuberculosis patient at 30 mg/kg, po; set-up: dose 30 mg/kg, route oral; details: in vivo
[23] = Cmax in diabetic tuberculosis patient at 30 mg/kg, po by HPLC analysis; set-up: dose 30 mg/kg, route oral; details: human, in vivo
[24] = Cmax in tuberculosis patient at 30 mg/kg, po by HPLC analysis; set-up: dose 30 mg/kg, route oral; details: human, in vivo
Homo sapiens [25] = test: Ratio of Cmax in diabetic tuberculosis patient to Cmax in tuberculosis patient at 30 mg/kg, po; set-up: dose 30 mg/kg, route oral; details: in vivo
[26] = Tmax in diabetic tuberculosis patient at 30 mg/kg, po by HPLC analysis; set-up: dose 30 mg/kg, route oral; details: human, in vivo
[27] = Tmax in tuberculosis patient at 30 mg/kg, po by HPLC analysis; set-up: dose 30 mg/kg, route oral; details: human, in vivo
[28] = Apparent oral clearance in tuberculosis patient at 10 mg/kg, po by HPLC analysis; set-up: dose 10 mg/kg, route oral; details: human, in vivo
[29] = Apparent volume of distribution in tuberculosis patient at 10 mg/kg, po by HPLC analysis; set-up: dose 10 mg/kg, route oral; details: human, in vivo, read-out: Vc/F
[30] = Apparent volume of distribution in diabetic tuberculosis patient at 10 mg/kg, po and 10 mg/kg, iv by HPLC analysis; details: human, in vivo, read-out: Vc/F
[31] = Bioavailability in diabetic tuberculosis patient at 10 mg/kg, po and 10 mg/kg, iv by HPLC analysis; details: human, in vivo
[32] = Oral bioavailability in tuberculosis patient at 10 mg/kg by HPLC analysis; details: human, in vivo

SMILES: CO[C@H]1/C=C/O[C@@]2(C)Oc3c(C)c(O)c4c(O)c(c(/C=N/N5CCN(C)CC5)c(O)c4c3C2=O)NC(=O)/C(C)=C\C=C\[C@H](C)[C@H](O)[C@@H](C)[C@@H](O)[C@@H](C)[C@H](O)[C@@H]1C
- AUC(0-t) [1]: 5.7 µg·h/mL
- AUC(0-t) at 24 h [2]: 8.3 µg·h/mL
- Ratio (Homo sapiens [3]): 0.69
- Cmax [4]: 1.1 µg/mL
- Cmax [5]: 1.4 µg/mL
- Ratio (Homo sapiens [6]): 0.78
- Tmax [7]: 3 h
- Tmax [8]: 4 h
- half-life [9]: 2.3 h
- half-life [10]: 2.4 h
- Ratio (Homo sapiens [11]): 0.94

SMILES: CC[C@@H](CO)NCCN[C@@H](CC)CO [ETHAMBUTOL]
- AUC(0-t) at 24 h [12]: 13.8 µg·h/mL
- AUC(0-t) at 24 h [13]: 13.5 µg·h/mL
- Ratio (Homo sapiens [14]): 1.02
- Cmax [15]: 2.2 µg/mL
- Cmax [16]: 1.95 µg/mL
- Ratio (Homo sapiens [17]): 1.12
- Tmax [18]: 3 h
- Tmax [19]: 3 h

SMILES: NC(=O)c1cnccn1 [PYRAZINAMIDE]
- AUC(0-t) at 24 h [20]: 409 µg·h/mL
- AUC(0-t) at 24 h [21]: 468 µg·h/mL
- Ratio (Homo sapiens [22]): 0.88
- Cmax [23]: 45.5 µg/mL
- Cmax [24]: 47 µg/mL
- Ratio (Homo sapiens [25]): 0.96
- Tmax [26]: 1 h
- Tmax [27]: 1.5 h

SMILES: CO[C@H]1/C=C/O[C@@]2(C)Oc3c(C)c(O)c4c(O)c(c(/C=N/N5CCN(C)CC5)c(O)c4c3C2=O)NC(=O)/C(C)=C\C=C\[C@H](C)[C@H](O)[C@@H](C)[C@@H](O)[C@@H](C)[C@H](OC(C)=O)[C@@H]1C [RIFAMPIN]
- AUC(0-t) [1]: 49 µg·h/mL
- AUC(0-t) at 24 h [2]: 50.6 µg·h/mL
- Cmax [5]: 9.6 µg/mL
- Tmax [7]: 2 h
- Tmax [8]: 2.5 h
- CL/F [28]: 148 mL/min
- Vd/F [29]: 27.6 L
- Vd/F [30]: 27.4 L
- bioavailability [31]: 69%
- bioavailability [32]: 74%
